Assay results reported in patent publication US20240415804A1, “METHOD OF TREATING PANCREATIC CANCER” (University of South Florida, priority 2022, published 2024).

How the values were obtained:
UN-KC-6141 cells = experiment: MTT cell viability assay, UN-KC-6141; type: cell-based, mouse; conditions: API 40 μM, 24 h, vs DMSO vehicle
Description: The methyl thiazol tetrazolium (MTT) assay was performed as described previously^58. Briefly, MiaPaCa-2, Panc02 and UN-KC-6141 cells were seeded in 96-well plates at a density of 3000 cells/well and allowed to attach overnight. PC cells were then treated with API (40 μM) or DMSO (1%) as vehicle control for 24 h at 37° C. in 5% CO2 incubator. After 24 h, media was replaced with 20 μL of MTT (1 mg/mL) (Sigma-Aldrich) and incubated for 3 h at 37° C. in 5% CO2. MTT was replaced with DMSO, and absorbance was read at 570 nm.
MiaPaCa-2, Panc02 and UN-KC-6141 cells (2×10^5) were grown in 2 mL of growth medium in a 6-well tissue culture plate for 18-24 h until 60-80% confluency. The following solutions were prepared: Solution A) For each transfection, diluted 1 μL of miRNA-155 inhibitors (1 μM) (Table 2) or scrambled negative control miRNA (1 μM) (Qiagen, Germantown, MD, USA) into 50 μL Opti-MEM Transfection Medium (Invitrogen, Waltham, MA, USA). Solution B) For each transfection, diluted 3 μL of Hi-Perfect Transfection Reagent into 50 μL Opti-MEM Transfection Medium. Solution A was added directly to Solution B, mixed gently and the mixture incubated for 10-15 min at room temperature. […]

[1] = test system: MDSC and macrophage subsets in the BM; experiment: Flow cytometry of MDSC and macrophage subsets in the BM of KC-HPC mice; type: in vivo, mouse; conditions: API 25 mg/kg IP
Description: All female C57BL/6 mice (6-8 weeks of age) described in this study were purchased from Envigo (Indianapolis, IN, USA) and were acclimatize for one week in a pathogen-free animal facility (University of South Florida (USF) vivarium) before injections with PC cells. To generate heterotopic pancreatic cancer (HPC) models, mice were subcutaneously injected with 1.5×10^5 murine Panc02 (HPC mice) or 5×10^6 murine UN-KC-6141 cells (KC-HPC mice), in sterile 1× phosphate buffer saline (PBS), in the lower ventral abdomen, while control (CTRL) mice received sterile 1×PBS. Once tumors where palpable, API (25 mg/kg, 100 μL volume) treatments (HPC-API and KC-HPC-API), via intraperitoneal (IP) injections, were started while CTRL, HPC and KC-HPC mice received sterile PBS (vehicle) three times per week until the end of the study^12, 55. The HPC models were euthanized 21-28 days post-injection, while the KC-HPC models were euthanized 16-17 days post-injection. The femur and tibia were cut at the pelvic-hip joint and muscle was removed. The femurs and tibias were cut at the ends and flushed with a 30-gauge needle and 10 cc syringe filled with completed RPMI media until bone was white onto a petri dish. Pelleted bone marrow (BM) cells were treated with Red Blood Cell (RBC) lysis buffer (eBioscience, Waltham, MA, USA), according to the manufacturer's instructions, and then filtered through a […] nylon mesh cell strainer in 1×PBS. All pancreatic tumors were manually cut into ˜1-2 mm^3 fragments with a sterile razor blade and then enzymatically digested with Collagenase, type IV (Sigma-Aldrich), DNase, type IV (Sigma-Aldrich) and Hyaluronidase, Type V (Sigma-Aldrich) in Hank's Balanced Salt Solution for 1 h, spun down and washed as described in previous studies^61. Digested pancreatic tumor samples were treated with RBC lysis buffer and then filtered through a […] nylon mesh cell strainer in 1×PBS. Bone marrow and digested pancreatic tumor single cell suspensions were counted with a hemocytometer and then resuspended in 3% FBS/PBS. BM and digested pancreatic tumor cells (1×10^6) were Fc Blocked (anti-mouse CD16/CD32) and then surface stained for 30 min on ice protected from light with fluorescent anti-mouse antibodies including, CD11b-APC, Ly6C-PE/Cy7, Ly6G-PerCP, F4/80-BV650, MHC—II-BV605, CD206-FITC and CD40-PE/Cy5 along with isotype control antibodies (Biolegend, San Diego, CA, USA) to detect MDSC and macrophage subsets. Digested pancreatic tumor cells (1×10^6) were also Fc Blocked and then surface stained with fluorescent anti-mouse antibodies including CD3-FITC, CD8-PercP/Cy5.5, CD4-APC/Cy7, and CD40L-APC along with isotype control antibodies (Biolegend) to detect CD8^+ T cells. Subsequently, all samples were fixed with 2% paraformaldehyde for 15 min on ice protected from light. Acquisition of samples was performed using a flow cytometer BD LSRII (BD Biosciences Immunocytometry Systems). Data analysis was performed using FlowJo v10.8 software (TreeStar Inc.).

## O=c1cc(-c2ccc(O)cc2)oc2cc(O)cc(O)c12 [API, 40,5,7-Trihydroxyflavone, 5,7-Dihydroxy-2-(4-hydroxyphenyl)-4-benzopyrone]
UN-KC-6141 cells
  cell viability (MTT): significantly inhibited
[1]; vs KC-HPC mice
  G-MDSC absolute cell numbers in BM: significantly lowered
  M1 macrophage percentages in BM: significantly increased
  M1 macrophages absolute cell numbers in BM: no significant changes
  M2 macrophage percentages in BM: decreased
  M2 macrophages absolute cell numbers in BM: no significant changes
  M-MDSC absolute cell numbers in BM: significantly lowered
[1]; vs vehicle treated KC-HPC mice
  proportions of G-MDSCs in BM: significantly reduced
  proportions of M-MDSCs in BM: without any significant change
